In patent EP0363230A2, “Use of acetogenins in therapy as antiparasitic substances” (LA[…] Société anonyme dite:, priority 1988, dated 1990):

How the values were obtained:
[1] = test system: cellules KB; assay: Cytotoxic effect on KB cells (dose lethal for 100 % of cells); assay type: cell-based, humain; conditions: 3 days at 37°C, dose lethal for 100 % of cells (complete disappearance of the cell layer)
Excerpt: (§1) La toxicité a été évaluée par la mesure de la cytotoxicité et de la cytostase vis-à-vis de cellules KB selon une technique usuelle. L'activité antiparasitaire a été déterminée in vitro sur Leishmania donovani, promastigote selon un protocole opératoire décrit ci-après.
(§2) On fait appel à des cellules épithéliales KB provenant d'un carcinome oral épidermoïde humain obtenues selon H. EAGLE "Propagation in a fluid medium of a human epidermoid carcinoma strain KB (21811)", Proc. Soc. Exp. Biol. and Med., 89, pages 362-364, (1955) et commercialisées par la Société dite EUROBIO.
(§3) Le milieu de culture utilisé avait la composition suivante
(§4) L'ensemencement se fait en boîte de 12 cupules contenant chacune 2 ml du milieu. Le produit à tester est mis en solution dans le diméthylsulfoxyde (DMSO) et dilué par du milieu de culture. La solution ainsi obtenue est ajoutée au milieu de culture pour obtenir des concentrations en produit à tester de 5, 10, 20, 30, 40, et […] par ml de milieu. Les cellules sont ajoutées en même temps que la solution du produit à tester.
(§5) Le milieu ensemencé et ainsi traité est mis à l'étuve à 37°C pendant 3 jours. Après fixation des cellules par la méthode dite au cristal violet [selon la technique de R.J. GILLIER et al., "Determination of cell number in monolayer cultures", Analytical Biochemistry 159, pages 109-113, (1986)]. […]

[2] = test system: cellules KB; assay: Cytostatic effect on KB cells (crystal violet, optical density at 590 nm); assay type: cell-based, humain; conditions: 3 days at 37°C, optical density at 590 nm versus control, ***/** = statistical significance
Excerpt: as §1, §2, §3, §4, §5

[3] = test system: Leishmania donovani, promastigote; assay: Anti-Leishmania effect in vitro (growth inhibition of promastigotes, cell count); assay type: cell-based; conditions: for inhibition (I%): growth inhibition of Leishmania donovani promastigotes; for DI-50: dose of 50 % inhibition, 26°C; for DI-50 / DImax: Leishmania donovani LRC L52 promastigotes, 3 to 4 days; for DImax: dose of maximal measured inhibition
Description: as §1
On fait appel à une souche de Lieshmania donovani LRC L52 (de la collection OMS).
as §3
L'ensemencement se fait dans des boîtes de 24 cupules contenant chacune 500 µl de milieu. Le milieu est ensemencé par 500 000 promastigotes par cupule puis placé dans une étuve à CO₂ à 26°C pendant 3 à 4 heures.
Le produit à tester est ajouté en solution dans le DMSO à des concentrations variables sous un volume de 25 µl par cupule. Les boîtes ensemencées et traitées par le produit sont laissées à l'étuve pendant 3 à 4 jours.
La mesure de l'activité est effectuée par comptage des cellules à l'hémocytomètre, le nombre obtenu étant rapporté à un témoin dépourvu de produit (100 % de cellules, soit 0 % d'inhibition de croissance). Chaque manipulation est effectuée 2 fois.
Les résultats obtenus sont également consignés dans le tableau I ci-après où sont données les doses d'inhibition à 50 % (DI-50) et les doses d'inhibition maximale mesurées (DImax).

Compound | Cytotoxicité [1] | Cytostase [2] | inhibition (I%) ([3]; DI = 10 µg.ml) | DI-50 [3] | DImax [3] | inhibition (I%) ([3]; DI = 20 µg.ml)
CCCCCCCCCC(O)CC1CCC(C2CCC(C(O)CCCC(O)CCCCCCC(O)CCC3=CC(C)OC3=O)O2)O1 (stereo not shown) [Ex 1, 2-[5-(2-hydroxyundécyl)-2-tétrahydrofurannyl]-5-[14-(5-méthyl-2-oxo-2,5-dihydro-3-furannyl)-1,5,12-trihydroxytétradécyl]-tétrahydrofuranne] | 40 µg·mL | 20*** µg.ml | 100% | 2,5 µg.ml | 10 µg·mL | 
CCCCCCCCCC(O)CC1CCC(C2CCC(C(O)CCCCCCCCCCC(O)CCC3=CC(C)OC3=O)O2)O1 (stereo not shown) [Ex 8, 2-[5-(2-hydroxyundécyl)-2-tétrahydrofurannyl]-5-[14-(5-méthyl-2-oxo-2,5-dihydro-3-furannyl)-1,12-dihydroxytétradécyl]-tétrahydrofuranne] | 40 µg·mL | 20** µg.ml |  | >20 µg·mL | 20 µg·mL | 11%
